Results from patent US8822440B2, “Inhibiting cyclin D polypeptides” (Mayo Foundation for Medical Education and Research, priority 2006, dated 2014).
Where two headings read alike, the source gives them in different places.

How the values were obtained:
HMCL [1] = assay: Annexin V / propidium iodide flow cytometry of HMCL; format: cell-based, human
Protocol: (§1) Flow cytometry. HMCL were treated as indicated and then washed in cold phosphate-buffered saline (PBS) and resuspended in buffer containing AnnexinV-FITC and propidium iodide (BD Biosciences, San Jose, Calif.) for 15 minutes at room temperature. Cells (10^5) were subsequently diluted and analyzed immediately by flow cytometry (FACScan, BD Biosciences, San Jose, Calif.) using CellQuest software. Patient bone marrow specimens were prepared and analyzed in a similar fashion using AnnexinV-FITC and anti-CD138-PE (BD Biosciences, San Jose, Calif.).

[2] = test system: cyclin D1, cyclin D2, cyclin D3; assay: Immunoblot of cyclin D proteins in HMCL; format: cell-based, human
Protocol: (§2) Immunoblotting. Cytosolic extracts were prepared from HMCL or purified patient CD138^+ myeloma cells following exposure to kinetin riboside. Cells were washed with cold PBS, resuspended in cold RIPA buffer (5×10^6 cells/100 μL) containing fresh protease and phosphatase inhibitors (Santa Cruz Biotechnology, Santa Cruz, Calif.) and incubated on ice for 30 minutes with gentle mixing. The supernatant was repossessed following high speed centrifugation, and protein concentrations were determined by the Bradford assay. Immunoblot assays were performed as described elsewhere (Krajewski et al., Anal. Biochem., 236:221-228 (1996)). Briefly, equal amounts of protein were separated by SDS-PAGE and transferred to a PVDF nitrocellulose membrane using a semi-dry apparatus. Membranes were blocked using 5% skim milk in Tris buffered saline and probed with monoclonal mouse anti-cyclin D1 (DCS-6, Biosource, Camarillo, Calif.), polyclonal rabbit anti-cyclin D2 (#2924, Cell Signalling Technology), monoclonal mouse anti-cyclin D3 (DCS-22, BioSource), polyclonal rabbit anti-c-Maf (M-153, Santa Cruz), polyclonal rabbit anti-Cleaved Caspase 9 (Asp315) (Cell Signaling Technology), monoclonal mouse anti-β-actin (Cell Signaling Technology) and/or monoclonal anti-a-tubulin (B-7)(Santa Cruz Biotechnology, Santa Cruz, Calif.). Membrane proteins were visualized using HRP-conjugated species-specific secondary antibodies (Cell Signaling Technology) and enhanced chemiluminescence (Pierce, Rockford, Ill.).

[3] = mouse, in vivo
Text: Kinetin riboside toxicity in mice. In vivo toxicity studies of synthetic kinetin riboside were initiated in balc/c mice. […] The actual volume of distribution and the half-life of kinetin riboside in vivo are at present unknown and future schedules of administration may require adjustment to account for these.

caspase 9 = assay: Immunoblot of caspase 9 cleavage in HMCL; format: cell-based, human; conditions: HMCL and CD138+ patient myeloma cells
Protocol: as §2, with “Membrane proteins were visualized using HRP-conjugated species-specific secondary antibodies (Cell Signaling Technology) and enhanced chemiluminescence (Pierce, Rockford, Ill.).” left out

Aqueous solubility = format: physicochemical
[4] = Tolerability of kinetin riboside in xenografted BNX mice; format: in vivo
Protocol: Female nude X-linked immune-deficient (BNX) mice purchased from NCI-Frederick were used for in vivo studies. Animals had access to food and water ad libitum and were handled in accordance with animal care and use guidelines. Eight-week-old mice were inoculated with My5 or 8226 (2×10^7) MM cells subcutaneously (s.c.) in the right flank. Kinetin riboside (pre-dissolved in DMSO at 500 mg/mL and stored at −20° C.) was formulated daily by dropwise dissolution to 3.7 mg/mL in pre-warmed (37° C.) 0.9% saline, 1% β2-hydroxypropylcyclodextrin (Sigma) solution and was administered 1×-5× daily at 85 mg/kg/dose. The first dose daily was given intraperitoneally and remaining doses were given s.c. with increasing dosing intervals (30, 60, 120, 180 minutes). Tumor volumes were measured using vernier calipers and calculated with the formula L×W×H×2/3. P-values were calculated by paired t-test (JMP 6.0, SAS; Cary, N.C.).
The anti-tumor activity of kinetin riboside in vivo was evaluated against My5 and 8226 human myeloma tumors grown as xenografts in nude mice. Drug or vehicle were initially administered once daily with dosing up to100 mg/kg/day, however, no effect on 8226 or My5 (FIG. 14A) tumor growth was observed. […] Xenograft studies were then repeated with 8226 tumors using kinetin riboside 85 mg/kg 4× daily upfront, started when tumors had reached a mean volume of 135 mm^3 (FIG. 14B). […] No effects on neutrophil counts (at 14 days treatment) or on body weight were observed.

[5] = test system: CD138− hematopoietic cells; assay: Unsorted myeloma patient bone marrow, flow cytometry: CD138- non-malignant cells; format: cell-based
Protocol: as §1
As mouse embryos that lack any D-cyclins eventually die from hematopoietic failure (Kozar et al., Cell, 118, 477-91 (2004)), the bone marrow might be predicted to be one of the most sensitive non-malignant tissue to be affected by drugs targeting cyclin D expression. Unsorted bone marrow samples from myeloma patients were treated with kinetin riboside to assess the relative cytotoxicity of this drug on malignant versus non-malignant marrow cells. Bone marrow samples were first processed to remove non-nucleated red cells and were then treated for 48 hours with kinetin riboside (5 μM).

cyclin D1, cyclin D2 = assay: Immunoblot of cyclin D proteins in purified patient CD138+ myeloma cells; format: cell-based, human
Protocol: Primary CD138^+ myeloma cell purification. Samples from patients diagnosed by International Myeloma Working Group criteria were included in this study. Bone marrow processing, including red cell lysis using ammonium chloride and CD138^+ plasma cell purification, was performed as described elsewhere (Abraham et al., Blood, 105, 794-803 (2005)). Research BM samples were obtained following informed consent at the time of routine procurement of clinical samples.
Immunoblotting. Cytosolic extracts were prepared from HMCL or purified patient CD138^+ myeloma cells following exposure to kinetin riboside. Cells were washed with cold PBS, resuspended in cold RIPA buffer (5×10^6 cells/100 μL) containing fresh protease and phosphatase inhibitors (Santa Cruz Biotechnology, Santa Cruz, Calif.) and incubated on ice for 30 minutes with gentle mixing. The supernatant was repossessed following high speed centrifugation, and protein concentrations were determined by the Bradford assay. Immunoblot assays were performed as described elsewhere (Krajewski et al., Anal. Biochem., 236:221-228 (1996)). Briefly, equal amounts of protein were separated by SDS-PAGE and transferred to a PVDF nitrocellulose membrane using a semi-dry apparatus. […]

HMCL [6] = assay: Cell cycle profiling of HMCL by flow cytometry; format: cell-based, human
Protocol: Cell cycle profiling. HMCL were incubated with drug or vehicle as indicated, washed and resuspended in 1 mL PBS. Ice cold ethanol was added dropwise to 75% with regular mixing, and suspensions were incubated at −20° C. for 1 hour. Cells were washed again with PBS and resuspended in 0.1 mL RNAse A (100 μg/mL) at room temperature for 5-10 minutes. Propidium iodide (200 μL×100 μg/mL) was added immediately prior to analysis by flow cytometry. Cellular aggregates were excluded using CellQuest Doublet Discriminator Module, and cell cycle profile was determined using ModFit LT Mac 3.1 SP2 (Verity Software House, TopSham, Me.).

OC[C@H]1O[C@@H](n2cnc3c(NCc4ccco4)ncnc32)[C@H](O)[C@@H]1O [kinetin riboside, N6-Furfuryladenosine]
time to Annexin-V surface binding and loss of CD138 expression (HMCL [1]): 24 to 96 h
response of H929 cells (HMCL [1]; H929, 10 μM): apoptosis
response of U266 cells (HMCL [1]; U266, 10 μM, 96 hours): growth inhibition
lag between exposure and cyclin D1 or D2 suppression [2]: 4 to 6 h
time to suppression of cyclin D1 and D2 proteins ([2]; H929, 10 μM): ≤ 6 h
time until cyclin D3 levels significantly affected ([2]; H929, 10 μM): ≥ 28 h
cyclin D3 protein levels ([2]; HMCL, 10 μM, 16 hours): did not influence cyclin D3 levels
cyclin D1 and D2 protein levels in Kms11 ([2]; Kms11): significant suppression only of cyclin D2 but not D1
cyclin D1 protein level in U266 ([2]; U266, 10 μM, 16 hours): suppression of cyclin D1
cyclin D1 and/or D2 protein levels ([2]; all HMCL tested, 10 μM, 16 hours): significant suppression
final concentration equated from a dose of 25 mg/kg ([3]; BALB/c (printed as "balc/c"), 25 mg/kg): about 60 μM
duration of hypoactivity after treatment ([3]; BALB/c): 15 to 30 min
maximum tolerated single dose (MTDs) ([3]; BALB/c, ip): ~100 mg/kg
maximum tolerated single dose (MTDs) ([3]; BALB/c, iv): about 25 mg/kg
tolerability of multi-dose regimen [3]: well tolerated
time to caspase-9 cleavage (caspase 9): ≤ 16 h
aqueous solubility (Aqueous solubility): limited aqueous solubility at high concentration
effect on neutrophil counts ([4]; at 14 days treatment): No effects
effect on body weight ([4]; mouse, in vivo): No effects
tolerability of rapidly repeated doses ([4]; up to five per day at 85 mg/kg/dose): well tolerated
toxicity in CD138− bone marrow progenitor compartment [5]: only modest toxicity
effect on non-malignant CD138− marrow cells ([5]; human, 48 h, 5 μM): leaving the majority of non-malignant CD138− marrow cells intact
patient samples with suppression of cyclin D1 or D2 (cyclin D1, cyclin D2; 10 μM, 16 hours): 4 of 5
cyclin D1 and D2 levels in sample E (plasma cell leukemia) (cyclin D1, cyclin D2; patient E): unaffected
cell cycle profile (HMCL [6]; H929 and U266, 10 μM, 20 hours): cell cycle arrest at G0/G1
fall in proportion of cells entering S-phase (HMCL [6]; all HMCL tested, 10 μM, within 20 hours): 50-70%
